Patent US4716153A, “Stable oral preparation of macrolide antibiotics and method for stabilizing the same” (priority 1982, dated 1987)
Read-outs that look alike come from different tables or passages of the source.

Assays:
[1] = Elution rate in aqueous solutions of various pH and physiological saline solution; assay type: physicochemical; conditions: for elution rate, pH 1.2, 2 and 3: initial pH 1.2, 2 and 3; for elution rate, pH 1.2, 2 and 3 / elution rate, pH 4 and 5 / elution rate, physiological saline solution: 37° C.; for elution rate, pH 4 and 5: initial pH 4 and 5
Protocol: After 40 ml of Japan Pharmacopoeia 1st solution (pH 1.2) was placed in a vessel whose temperature was kept constant in a thermostat at 37° C., 200 mg of TMS-19-Q was added and the mixture was stirred by a magnetic stirrer. […] Then, Japan Pharmacopoeia 2nd solution were mixed with the 1st solution, and by using aqueous solutions whose pH values were adjusted to be 2, 3, 4 and 5 and a physiological saline solution, respectively, elution rate of each thereof was measured.
To 40 ml of Japan Pharmacopoeia 1st solution (pH 1.2), 120 ml of water was added, and after the solution was kept in a constant temperature bath controlled at 37° C., 200 mg of midecamycin was added, and the mixture was stirred by a magnetic stirrer. Then, 5 ml aliquots of the solution were sampled in a lapse of time (at 5 minutes, 15 minutes and 30 minutes), and absorbances were measured (wavelength: 232 nm) and elution rate were calculated. Then, Japan Pharmacopoeia 1st solution and Japan Pharmacopoeia 2nd solution were mixed to prepare aqueous solutions whose pH values were adjusted to be 2, 3, 4 and 5, respectively. By using these solutions and physiological saline solution, the elution rates were calculated following the same procedures as those indicated above.
By following the same procedures and under the same conditions as those of Example 31, elution rates of 9-propionyljosamycin were measured.
By following the same procedures and under the same conditions as those of Example 31, elution rates of josamycin were measured.
In addition to the conditions of Example 31, Japan Pharmacopoeia 1st solution and Japan Parmacopoeia 2nd solution were mixed to prepare an aqueous solution having pH of 2.5, and following the same procedures as those of Example 31, elution rates of 9,3"-diacetylmidecamycin were measured.

[2] = Stability in Japan Pharmacopoeia 1st solution (pH 1.2) at 37° C., with or without stabilizer (TLC densitometry, 232 nm); assay type: physicochemical; conditions: for improvement of stability compared with control, 30 minutes: value at 30 minutes; for stability in 1st solution (in words): 1st solution pH 1.2, no stabilizer; for stability with tri-sodium citrate (in words): 150-300 mg of tri-sodium citrate; for stability with calcium phosphate (in words): 150-400 mg of calcium phosphate; for stability with glycine (in words): 150-900 mg of glycine; for stability with L-aspartic acid monosodium salt (in words): 200-500 mg of Asp.Na; for stability with monosodium glutamate (in words): 200-500 mg of Glu.Na; for degraded at 0.5 h: read-out: decomposites (balance), 30 minutes; for remaining at 0.5 h: read-out: residual amount after contact with 1st solution, 30 minutes; for degraded at 1 h / remaining at 1 h: 60 minutes; for stability with a larger amount of glycine (in words): larger amount of glycine (up to 900 mg)
Description: The stabilizers showing pH 3-10 used in the invention may be substances having a buffering or antacid action and showing pH 3-10, preferably 5.5-6.5. These are, for example, neutral amino acids or their basic salts, basic salts of acidic amino acids, basic amino acids,basic salts of organic carboxylic acids,basic salts of polybasic organic carboxylic acids, basic salts of uronic acid or inorganic salt antacids. The neutral amino acids or basic salts thereof include glycine, alanine, aminobutyric acid, proline, leucine, isoleucine, methionine, threonine, serine, valine, or their aluminium salts, for example aluminium glycinate. Among these, glycine, alanine and aluminium glycinate, both of which show pH 5.5-6.5, are preferable. The basic salts of acidic amino acid include monobasic salts such as a monosodium, monopotassium or magnesium salt of glutaminic or aspartic acid. Among these monobasic salts, monosodium glutamate or monosodium aspartate is preferable. The basic amino acids include arginine, glutamine, asparagine, citrulin, tryptophane and histidine. Especially, histidine is preferable. The basic salts of monobasic organic carboxylic acid include basic salts such as sodium, potassium, magnesium or aluminium salts of saturated monobasic organic carboxylic acids such as acetic acid and propionic acid, of unsaturated monobasic organic acids such as acrylic acid, crotonic acid and vinylacetic acid, and of other monobasic organic acids such as lactic acid, pyruvic acid, glyceric acid and acetoacetic acid. The basic salts of polybasic organic carboxylic acid include mono-, di- or tri-sodium, potassium, magnesium, calcium or aluminium salts of saturated polybasic organic carboxylic acids such as oxalic acid, malonic acid, succinic acid, glutaric acid, adipic acid and pimelic acid, of unsaturated polybasic organic carboxylic acids such as maleic acid and fumaric acid, and of other polybasic organic carboxylic acids such as meso-oxalic acid, malic acid, oxalacetic acid and citric acid. Among these, trisodium citrate is preferable. The basic salts of uric acids include sodium salts of glucuronic acid, galacturonic acid or their polymers such as alginic acid or peptic acid and dihydroxyaluminium aminoacetate sodium alginate. The inorganic salt antacids include calcium hydrogenphosphate, disodium hydrogenphosphate, dipotassium hydrogenphosphate, magnesium hydrogenphosphate, calcium carbonate, sodium carbonate, potassium carbonate, sodium hydrogen carbonate, aluminium carbonate, magnesium carbonate, potassium metasilicate, magnesium aluminate metasilicate, sodium metasilicate, synthetic aluminium silicate, magnesium silicate, aluminium silicate, magnesium aluminate silicate, magnesium-bismuth aluminate silicate, magnesium oxide, alumina-magnesium hydroxide, magnesium peroxide, magnesium hydroxide, aluminium hydroxide, synthetic hydrotarphite, aluminium phosphate and others. Especially, calcium phosphate and magnesium phosphate are preferable. Each of these stabilizers may be used alone or in the form of a mixture. […] A method for stabilization of 16-membered ring macrolide antibiotics of the present invention will be described in detail. The afore-mentioned various 16-membered ring macrolide antibiotics, for example 9-hydroxy 16-membered ring macrolides such as midecamycin, 3"-propionylleucomycin A5 and josamycin and 9-acyloxy 16-membered ring macrolides such as 9,3"-diacetylmidecamycin and 9-propionyljosamycin show extremely poor residual rates when added to an acidic solution of the Japanese Pharmacopoeia lst liquid (pH 1.2) and allowed to stand. That is, the 9hydroxy 16-membered ring maclorides decompose in a short time to by-produce their iso, demycarosyl and/or isodemycarosyl forms. The 9-acyloxy 16-membered ring macrolides decompose, too, to by-produce their 9-deacyl, 9-deacyl-iso, demycarosyl, 9-deacyl-demycarosyl or 9-deacyl-iso-demycarosyl forms. […]

[3] = solutions whose pH is equal to or less than 4.37
[4] = 1st solution pH 1.2, 37° C., 30 minutes, no stabilizer
[5] = jp 1st solution, pH 1.2, 1st solution pH 1.2, 37° C., 30 minutes, no stabilizer
[6] = jp 1st solution, 1st solution pH 1.2, 37° C., 30 minutes, no stabilizer
[7] = jp 1st solution, 1st solution pH 1.2, 37° C., no stabilizer, read-out: decomposites (balance), 60 minutes
[8] = jp 1st solution, 1st solution pH 1.2, 37° C., no stabilizer, read-out: residual amount after contact with 1st solution, 60 minutes

Row | SMILES | elution rate, pH 1.2, 2 and 3 ([1]; after 15-minute stirring) [%] | elution rate, pH 4 and 5 ([1]; after 15-minute stirring) | elution rate in pH 1.2-3 acidic aqueous solution (summary) ([1]; general description) | elution rate in pH 4-5 weak acidic aqueous solution (summary) ([1]; general description) | elution rate, physiological saline solution ([1]; after 15-minute stirring) [%] | elution rate in physiological saline solution (summary) ([1]; general description) | time within which elution was nearly completed [1, 3] [min] | improvement of stability compared with control, 30 minutes ([2]; 150 mg of glycine) [%] | stability in 1st solution (in words) [2] | stability with tri-sodium citrate (in words) ([2]; 1st solution) | stability with calcium phosphate (in words) ([2]; 1st solution) | stability with glycine (in words) ([2]; 1st solution) | stability with L-aspartic acid monosodium salt (in words) ([2]; 1st solution) | stability with monosodium glutamate (in words) ([2]; 1st solution) | stability with a larger amount of glycine (in words) [2] | degraded at 0.5 h [2, 6] [%] | remaining at 0.5 h [2, 6] [%] | degraded at 1 h [2, 7] [%] | remaining at 1 h [2, 8] [%] | other results
1 | CCC(=O)OC1CC(=O)OC(C)C/C=C/C=C/C(O)C(C)CC(CC=O)C(OC2OC(C)C(OC3CC(C)(O)C(OC(=O)CC)C(C)O3)C(N(C)C)C2O)C1OC (stereo not drawn) [midecamycin] | ≥ 95 | 45-60% | more than 95% | less than 50% | 15 | less than 15% | ≤ 15 | 50 | extremely unstable | extremely well stabilized | extremely well stabilized | stabilized well | very much enhanced | very much enhanced | hardly decomposed | – | – | – | – | decomposites (balance), 30 minutes [2, 4]: 42.6%; residual amount after contact with 1st solution, 30 minutes [2, 4]: 57.4%; degraded at 0.5 h [2, 5]: 55%; remaining at 0.5 h [2, 5]: 45%; degraded at 1 h ([2]; jp 1st solution, pH 1.2, 1st solution pH 1.2, 37° C., no stabilizer, read-out: decomposites (balance), 60 minutes): 65%; remaining at 1 h ([2]; jp 1st solution, pH 1.2, 1st solution pH 1.2, 37° C., no stabilizer, read-out: residual amount after contact with 1st solution, 60 minutes): 35%
2 | CO[C@@H]1[C@@H](O[C@@H]2O[C@H](C)[C@@H](O[C@H]3C[C@@](C)(O)[C@@H](OC(=O)CC(C)C)[C@H](C)O3)[C@H](N(C)C)[C@H]2O)[C@@H](CC=O)C[C@@H](C)[C@@H](O)/C=C/C=C/C[C@@H](C)OC(=O)C[C@H]1OC(C)=O [josamycin] | ≥ 95 | 50-60% | more than 95% | less than 50% | 15 | less than 15% | – | 30 | – | – | – | – | – | – | – | – | – | – | – | time within which elution was nearly completed ([1]; solutions whose pH is equal to or less than 4.35): ≤ 15 min; degraded at 1 h ([2]; jp 1st solution, pH 1.2, decomposites (balance)): 53.3%; remaining at 1 h ([2]; jp 1st solution, pH 1.2, residual amount after contact with 1st solution): 46.7%
3 | CCC(=O)OC1CC(=O)OC(C)C/C=C/C=C/C(OC(C)=O)C(C)CC(CC=O)C(OC2OC(C)C(OC3CC(C)(OC(C)=O)C(OC(=O)CC)C(C)O3)C(N(C)C)C2O)C1OC (stereo not drawn) [9,3"-diacetylmidecamycin] | – | – | – | – | – | less than 15% | – | 60 | extremely unstable | very much enhanced | extremely enhanced | stabilized well | very much enhanced | very much enhanced | hardly decomposed | 50.6 | 49.4 | 75.5 | 24.5 | elution rate, pH 1.2, 2 and 2.5 ([1]; initial pH 1.2, 2 and 2.5, after 15-minute stirring): ≥ 95%; elution rate, pH 3 ([1]; initial pH 3, after 15-minute stirring): 50%; elution rate, pH 4 and 5 and physiological saline solution ([1]; initial pH 4 and 5 and physiological saline, after 15-minute stirring): 5-10%; elution rate in pH 1.2-2.5 acidic aqueous solution (summary) ([1]; pH 1.2-2.5, general description): more than 95%; time within which elution was nearly completed ([1]; solutions whose final pH is equal to or less than 3.77): ≤ 15 min
4 | CCC(=O)O[C@H]1/C=C/C=C/C[C@@H](C)OC(=O)C[C@@H](OC(C)=O)[C@H](OC)[C@@H](O[C@@H]2O[C@H](C)[C@@H](O[C@H]3C[C@@](C)(O)[C@@H](OC(=O)CC(C)C)[C@H](C)O3)[C@H](N(C)C)[C@H]2O)[C@@H](CC=O)C[C@H]1C [9-propionyljosamycin] | ≥ 95 | 45-55% | more than 95% | less than 50% | 10 | less than 15% | ≤ 15 | – | extremely unstable | very much enhanced | extremely enhanced | stabilized well | very much enhanced | very much enhanced | hardly decomposed | 55.8 | 44.2 | 84.1 | 15.9 | improvement of stability compared with control, 60 minutes ([2]; 150 mg of glycine, value at 60 minutes): improved by four times; degraded at 25 min ([2]; jp 1st solution, pH 1.2, 1st solution, about 25 minutes, read-out: decomposition in contact with 1st solution): 50%
